Test results published in patent US20040229791A1, “Compositions and methods of modulating TGF-beta activity by fatty acids” (priority 2002, published 2004).

Target: T1, 125I-TGF-β isoform-α2M* complexes (Homo sapiens, UniProt P01023)
T1 construct: was purified from pooled citrate-treate human plasma; from tissue; host or cells: pooled citrate-treated human plasma
T1 sequence (P01023 24-1474): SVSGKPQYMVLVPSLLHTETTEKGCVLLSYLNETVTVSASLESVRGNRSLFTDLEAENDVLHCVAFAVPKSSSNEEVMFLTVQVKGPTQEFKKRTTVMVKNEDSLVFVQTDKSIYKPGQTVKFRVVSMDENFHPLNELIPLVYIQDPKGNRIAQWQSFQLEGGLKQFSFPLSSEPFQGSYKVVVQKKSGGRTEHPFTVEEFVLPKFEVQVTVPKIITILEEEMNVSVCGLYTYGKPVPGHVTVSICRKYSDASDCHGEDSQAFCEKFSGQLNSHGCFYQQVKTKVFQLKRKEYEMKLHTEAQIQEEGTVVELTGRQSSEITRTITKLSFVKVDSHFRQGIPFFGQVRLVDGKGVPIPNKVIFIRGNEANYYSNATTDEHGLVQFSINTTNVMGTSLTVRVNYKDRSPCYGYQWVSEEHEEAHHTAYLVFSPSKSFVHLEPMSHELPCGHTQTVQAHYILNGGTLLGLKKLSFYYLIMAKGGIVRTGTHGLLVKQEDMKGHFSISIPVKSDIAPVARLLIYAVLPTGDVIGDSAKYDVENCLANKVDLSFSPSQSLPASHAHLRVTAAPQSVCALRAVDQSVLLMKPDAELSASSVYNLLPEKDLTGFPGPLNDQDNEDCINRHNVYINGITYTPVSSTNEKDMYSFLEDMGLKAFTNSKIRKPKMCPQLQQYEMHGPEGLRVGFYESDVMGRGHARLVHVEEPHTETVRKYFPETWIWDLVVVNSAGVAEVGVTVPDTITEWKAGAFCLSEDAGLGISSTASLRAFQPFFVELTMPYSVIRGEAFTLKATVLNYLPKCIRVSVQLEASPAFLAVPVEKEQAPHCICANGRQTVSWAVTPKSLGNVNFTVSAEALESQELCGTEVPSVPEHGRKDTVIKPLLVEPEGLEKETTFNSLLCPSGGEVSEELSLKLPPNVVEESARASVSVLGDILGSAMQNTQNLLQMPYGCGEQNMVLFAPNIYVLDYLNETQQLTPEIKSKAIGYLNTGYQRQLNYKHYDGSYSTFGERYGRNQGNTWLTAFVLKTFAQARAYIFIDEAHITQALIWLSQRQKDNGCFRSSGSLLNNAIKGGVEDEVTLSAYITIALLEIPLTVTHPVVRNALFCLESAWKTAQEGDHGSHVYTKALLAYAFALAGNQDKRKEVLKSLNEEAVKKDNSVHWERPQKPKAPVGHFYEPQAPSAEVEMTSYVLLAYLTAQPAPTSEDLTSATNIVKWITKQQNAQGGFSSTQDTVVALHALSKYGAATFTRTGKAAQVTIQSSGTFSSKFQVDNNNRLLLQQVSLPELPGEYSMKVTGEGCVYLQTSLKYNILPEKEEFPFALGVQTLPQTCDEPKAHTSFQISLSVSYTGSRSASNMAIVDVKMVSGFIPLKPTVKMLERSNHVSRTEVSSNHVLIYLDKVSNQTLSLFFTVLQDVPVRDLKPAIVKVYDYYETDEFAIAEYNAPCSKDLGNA
Test: Complex formation of 125I-TGF-β isoforms and α2M* by DSS cross-linking and 7.5% SDS-PAGE
Type: binding
Conditions: DSS cross-linking, effective concentrations comparable to non-denaturing PAGE
Method: TGF- ? isoforms bind to α2M* with different affinities: TGF ? β2>TGF ? β1 ( active sites of TGF ? β1 and TGF- ? 2 responsible for high-affinity binding to ? 2M* are disti from the low-affinity ? 2M* binding site in TGF- ? 3 (19). To determine if fatty acids differentially affect the binding of TGF- ? isoforms to ? 2M*, the effects of various concentrations of arachidonic acid and myristic acid on complex formation of ^125I-labeled TGF ? β isoforms and ? 2M were determined*. […] It inhibited 30% of the complex form . α2M* and TGF ? β2 and TGF ? β3 at 100 and >250 μM, respectively. Arachidon polyunsaturated fatty acid, was a stronger inhibitor of complex formation of ? 2M* and TGF-.β2/TGF ? β3. It inhibited 50% of the complex formation of ? 2M* and ^125I-TGF- ? 2 at 50 μM (FIG. 3A). The observation that myristic acid and arachidonic acid inhibited complex formation of ^125I-TGF- ? […] 2M* complexes in the reaction mixtures were then analyzed by 7.5% SDS-PAGE and autoradiography.
Complex formation of ^125I-TGF-β and ? […] After 30 min at room temperature, the complex formation of ^125I-TGF- ? and. α2M* was determined by 5% non-denaturing polyacrylamide gel electrophoresis (PAGE) or by 7.5% SDS-PAGE following cross-linking by 0.6 mM DSS. After electrophoresis, the gel was stained with Coomassie blue and analyzed by autoradiography. […] 2M* was quantified using a PhosphoImager (Fuji).

For `CCCCC/C=C\C/C=C\C/C=C\C/C=C\CCCC(=O)O` [arachidonic acid], the “blocking of cross-linked 125I-TGF-β isoform-α2M* complex formation” value was “blocked complex formation”.
